According to US4505929A, “Sulfur-substituted diphenyl ethers having antiviral activity” (The Dow Chemical Company, priority 1982, dated 1985):
Values after ≈ are worked out from the molar mass of the structure shown.

Legend:
[1] = Cytotoxicity to HeLa cells in tissue culture testing; format: cell-based; conditions: human, G.I. = growth inhibition: at the concentration shown the compound inhibited growth of the tissue culture, read-out: Cytotoxicity (G.I.)
Method: (§1) Monolayered HeLa cells in 16 millimeter (mm) tissue culture dishes were treated with 1 ml of culture medium (Eagles medium supplemented with fetal calf serum) containing subject compound at an appropriate concentration or containing no compound at all. Culture media such as those described herein are more fully described in standard texts, as for example, Kuchler's Biochemical Methods in Cell Culture and Virology, Dowden, Hutchinson and Ross, Inc., Stroudsberg, PA (1977). Following treatment, cells were challenged with 0.05 ml of rhinovirus type 1A (RV-1A), rhinovirus type 2 (RV-2) or Coxsackie A21 virus (Cox A21) in culture medium. Some of the compounds were also tested against rhinovirus type 5 (RV-5), rhinovirus type 8 (RV-8) or rhinovirus type 64 (RV-64). Cell controls received no viruses.
^x Cytotoxicity figures represent the concentration of the compound,
micrograms/milliliter (μg/ml) found to be toxic to the cell.
means "approximately "; "<<" "considerably less than " and "G.I." means

[2] = tested on: rhinovirus type 1A (RV-1A); assay: Tissue culture antiviral test (HeLa cells), RV-1A; format: cell-based; conditions: Enterovirus, 48 and 72 hours post-treatment, read-out: Lowest concentration necessary to cause a 50 percent reduction in cytopathic effect, RV-1A
Method: as §1
(§2) ^xx Lowest concentration of the compound (μg/ml) necessary to caus
(§3) a 50 percent reduction in cytopathic effect.

rhinovirus type 2 (RV-2) = assay: Tissue culture antiviral test (HeLa cells), RV-2; format: cell-based; conditions: Enterovirus, 48 and 72 hours post-treatment, read-out: Lowest concentration necessary to cause a 50 percent reduction in cytopathic effect, RV-2
Method: as §1, §2, §3

[3] = tested on: Coxsackie A21 virus (Cox A21); assay: Tissue culture antiviral test (HeLa cells), Cox A21; format: cell-based; conditions: 48 and 72 hours post-treatment, read-out: Lowest concentration necessary to cause a 50 percent reduction in cytopathic effect, Cox A21
Method: as §1, §2, §3

rhinovirus type 8 (RV-8) = assay: Tissue culture antiviral test (HeLa cells), RV-8; format: cell-based; conditions: Enterovirus, 48 and 72 hours post-treatment, read-out: Lowest concentration necessary to cause a 50 percent reduction in cytopathic effect, RV-8
Method: as §1, §2, §3

[4] = tested on: rhinovirus type 64 (RV-64); assay: Tissue culture antiviral test (HeLa cells), RV-64; format: cell-based; conditions: Enterovirus, 48 and 72 hours post-treatment, read-out: Lowest concentration necessary to cause a 50 percent reduction in cytopathic effect, RV-64
Method: as §1, §2, §3

Cox A21 = assay: Single Oral Dose test in Cox A21 infected mice; format: in vivo, Swiss male mice
Method: In addition, some of the compounds were tested in animals utilizing the following procedure, hereinafter referred to as the "Single Oral Dose" test. Swiss male mice, 10-12 grams in weight were challenged intraperitoneally (IP) with 0.2 ml of a normally lethal dose, i.e. a virus dose sufficient to cause .congruent.80-100% mortality in infected animals within 10 days of challenge of Cox A21, in phosphate buffered saline containing 1% heat inactivated fetal calf serum. Three hours later mice were treated orally (P.O.) with 0.2 ml of compound suspended in 0.5% hydroxypropyl methylcellulose (Methocel) or with 0.2 ml of 0.5% Methocel containing no compound. […] Mice were observed daily for 7-10 days post-challenge and deaths recorded. A modified Mantel-Haenzel combined chi-square procedure was used to determine significant difference between virus control and treated groups. Chi-square values greater than 3.84 are considered significant (95% confidence level) in this test.

Coxsackie A21 virus = assay: Continuous Oral Feeding test in Coxsackie A21 infected mice; format: in vivo; conditions: in diet
Method: Some of the compounds were also tested in animals utilizing the following procedure, hereinafter referred to as the "Continuous Oral Feeding" test. Coxsackie A21 virus grown on HeLa cells was administered at a concentration that produces 80 to 100% deaths in mice weighing 10 to 11 grams within 10 days, when the mice are injected (IP) with 0.2 ml of virus preparation. Mice were placed on diets containing test compound dispersed in plain commercially available rodent mash chow at a concentration of 0.05% (weight percent) on day 0. On day 1 the mice were challenged with the virus preparation, 0.2 ml/mouse, (IP). Deaths in both control and experimental groups were recorded for the 10 days and the results analyzed by a chi-square (X^2) test. Chi-square values greater than 3.84 indicate the compound is active (95% confidence level).
^xxx Percent (by weight) of test compound in the diet fed to test

[5] = tested on: Hank's (untyped) rhinovirus; assay: Inhibition of cytopathic effect in Wl-38 cells, Hank's (untyped); format: cell-based; conditions: Enterovirus, WI-38, 25 μg/ml, Wl-38 human embryonic lung cells, read-out: inhibition grade
Method: (§4) Solutions of 4-(4-(methylsulfonyl)phenoxy)-1,2-dichlorobenzene were prepared by dissolving 5 milligrams of the compound in 0.1 ml dimethyl sulfoxide and incubating at 56° C. for at least 15 minutes. This solution was added to 0.9 ml of warmed (56° C.) maintenance medium (49% Eagles, 49% medium 199, 2% fetal calf serum and antibiotics), and the resulting 1.0 ml was then added to 9 ml of warmed (56° C.) maintenance medium. From this solution the final concentrations of 100, 50, 25, or 12.5 μg/ml were made up with maintenance medium.
(§5) Triplicate cell culture tubes (Wl-38 human embryonic lung cell culture tubes) were fed with 1 ml of medium containing the compound at specified concentrations and inoculated with 3-300 TCID50 (3-300 times the tissue culture infective dose 50, i.e., the dose required to infect 50% of the cell cultures tested. Simultaneous viral titrations were performed. The tissue cultures were supplemented with fresh medium when necessary (around 3-4 days) until viral titrations were completed.
(§6) The cell culture tubes were examined daily for cytopathic effect. […] Comparisons were made at that time with the percentage of cell sheet destruction in tubes containing virus compound mixtures. Observed differences of 75% or more were graded "+", 74-50% as "±", and less than 50% as "-" inhibition.

rhinovirus type 4 = assay: Inhibition of cytopathic effect in Wl-38 cells, type 4; format: cell-based; conditions: Enterovirus, WI-38, 25 μg/ml, Wl-38 human embryonic lung cells, read-out: inhibition grade
Method: as §4, §5, §6

rhinovirus type 6 = assay: Inhibition of cytopathic effect in Wl-38 cells, type 6; format: cell-based; conditions: Enterovirus, WI-38, 25 μg/ml, Wl-38 human embryonic lung cells, read-out: inhibition grade
Method: as §4, §5, §6

rhinovirus type 10 = assay: Inhibition of cytopathic effect in Wl-38 cells, type 10; format: cell-based; conditions: Enterovirus, WI-38, 25 μg/ml, Wl-38 human embryonic lung cells, read-out: inhibition grade
Method: as §4, §5, §6

rhinovirus type 13 = assay: Inhibition of cytopathic effect in Wl-38 cells, type 13; format: cell-based; conditions: Enterovirus, WI-38, 25 μg/ml, Wl-38 human embryonic lung cells, read-out: inhibition grade
Method: as §4, §5, §6

rhinovirus type 17 = assay: Inhibition of cytopathic effect in Wl-38 cells, type 17; format: cell-based; conditions: Enterovirus, WI-38, 25 μg/ml, Wl-38 human embryonic lung cells, read-out: inhibition grade
Method: as §4, §5, §6

rhinovirus type 19 = assay: Inhibition of cytopathic effect in Wl-38 cells, type 19; format: cell-based; conditions: Enterovirus, WI-38, 25 μg/ml, Wl-38 human embryonic lung cells, read-out: inhibition grade
Method: as §4, §5, §6

rhinovirus type 21 = assay: Inhibition of cytopathic effect in Wl-38 cells, type 21; format: cell-based; conditions: Enterovirus, WI-38, 25 μg/ml, Wl-38 human embryonic lung cells, read-out: inhibition grade
Method: as §4, §5, §6

rhinovirus type 29 = assay: Inhibition of cytopathic effect in Wl-38 cells, type 29; format: cell-based; conditions: Enterovirus, WI-38, 25 μg/ml, Wl-38 human embryonic lung cells, read-out: inhibition grade
Method: as §4, §5, §6

rhinovirus type 39 = assay: Inhibition of cytopathic effect in Wl-38 cells, type 39; format: cell-based; conditions: Enterovirus, WI-38, 25 μg/ml, Wl-38 human embryonic lung cells, read-out: inhibition grade
Method: as §4, §5, §6

rhinovirus type 56 = assay: Inhibition of cytopathic effect in Wl-38 cells, type 56; format: cell-based; conditions: Enterovirus, WI-38, 25 μg/ml, Wl-38 human embryonic lung cells, read-out: inhibition grade
Method: as §4, §5, §6

rhinovirus type 58 = assay: Inhibition of cytopathic effect in Wl-38 cells, type 58; format: cell-based; conditions: Enterovirus, WI-38, 25 μg/ml, Wl-38 human embryonic lung cells, read-out: inhibition grade
Method: as §4, §5, §6

rhinovirus type 59 = assay: Inhibition of cytopathic effect in Wl-38 cells, type 59; format: cell-based; conditions: Enterovirus, WI-38, 25 μg/ml, Wl-38 human embryonic lung cells, read-out: inhibition grade
Method: as §4, §5, §6

rhinovirus type 60 = assay: Inhibition of cytopathic effect in Wl-38 cells, type 60; format: cell-based; conditions: Enterovirus, WI-38, 25 μg/ml, Wl-38 human embryonic lung cells, read-out: inhibition grade
Method: as §4, §5, §6

rhinovirus type 64 = assay: Inhibition of cytopathic effect in Wl-38 cells, type 64; format: cell-based; conditions: Enterovirus, WI-38, 25 μg/ml, Wl-38 human embryonic lung cells, read-out: inhibition grade
Method: as §4, §5, §6

rhinovirus type 74 = assay: Inhibition of cytopathic effect in Wl-38 cells, type 74; format: cell-based; conditions: Enterovirus, WI-38, 25 μg/ml, Wl-38 human embryonic lung cells, read-out: inhibition grade
Method: as §4, §5, §6

rhinovirus type 81 = assay: Inhibition of cytopathic effect in Wl-38 cells, type 81; format: cell-based; conditions: Enterovirus, WI-38, 25 μg/ml, Wl-38 human embryonic lung cells, read-out: inhibition grade
Method: as §4, §5, §6

rhinovirus type 68 = assay: Inhibition of cytopathic effect in Wl-38 cells, type 68; format: cell-based; conditions: Enterovirus, WI-38, 25 μg/ml, Wl-38 human embryonic lung cells, read-out: inhibition grade
Method: as §4, §5, §6

rhinovirus type 8 = assay: Inhibition of cytopathic effect in Wl-38 cells, type 8; format: cell-based; conditions: Enterovirus, WI-38, 25 μg/ml, Wl-38 human embryonic lung cells, read-out: inhibition grade
Method: as §4, §5, §6

rhinovirus type 75 = assay: Inhibition of cytopathic effect in Wl-38 cells, type 75; format: cell-based; conditions: Enterovirus, WI-38, 25 μg/ml, Wl-38 human embryonic lung cells, read-out: inhibition grade
Method: as §4, §5, §6

Acute toxicity in rats = conditions: rat, in vivo
[6] = Acute oral toxicity in beagle dogs; conditions: dog, in vivo
Picornaviruses = assay: Antiviral effectiveness against picornaviruses, overall; format: cell-based
Method: as §1
Solutions of 4-(4-(methylsulfonyl)phenoxy)-1,2-dichlorobenzene were prepared by dissolving 5 milligrams of the compound in 0.1 ml dimethyl sulfoxide and incubating at 56° C. for at least 15 minutes. This solution was added to 0.9 ml of warmed (56° C.) maintenance medium (49% Eagles, 49% medium 199, 2% fetal calf serum and antibiotics), and the resulting 1.0 ml was then added to 9 ml of warmed (56° C.) maintenance medium. From this solution the final concentrations of 100, 50, 25, or 12.5 μg/ml were made up with maintenance medium. […]

CS(=O)(=O)c1ccc(Oc2ccc(Cl)c(Cl)c2)cc1 [Example 1, 4-(4-(Methylsulfonyl)phenoxy)-1,2-dichlorobenzene]
MCC [1]: 50 to 100 µg/mL | EC50 [2]: 0.25 µg/mL (≈ 0.788 µM) | EC50 (rhinovirus type 2 (RV-2)): 0.25 µg/mL (≈ 0.788 µM) | EC50 [3]: 2.5 µg/mL (≈ 7.88 µM) | EC50 (rhinovirus type 8 (RV-8)): ~50 µg/mL (≈ 158 µM) | EC50 [4]: 0.25 µg/mL (≈ 0.788 µM) | antiviral activity in Single Oral Dose test (Cox A21): exhibited antiviral activity | antiviral activity in Continuous Oral Feeding test (Coxsackie A21 virus): exhibited antiviral activity | inhibition at 25 µg/mL [5]: ≥ 75% | inhibition at 25 µg/mL (rhinovirus type 4): ≥ 75% | inhibition at 25 µg/mL (rhinovirus type 6): ≥ 75% | inhibition at 25 µg/mL (rhinovirus type 10): ≥ 75% | inhibition at 25 µg/mL (rhinovirus type 13): ≥ 75% | inhibition at 25 µg/mL (rhinovirus type 17): ≥ 75% | inhibition at 25 µg/mL (rhinovirus type 19): ≥ 75% | inhibition at 25 µg/mL (rhinovirus type 21): ≥ 75% | inhibition at 25 µg/mL (rhinovirus type 29): ≥ 75% | inhibition at 25 µg/mL (rhinovirus type 39): ≥ 75% | inhibition at 25 µg/mL (rhinovirus type 56): ≥ 75% | inhibition at 25 µg/mL (rhinovirus type 58): ≥ 75% | inhibition at 25 µg/mL (rhinovirus type 59): ≥ 75% | inhibition at 25 µg/mL (rhinovirus type 60): ≥ 75% | inhibition at 25 µg/mL (rhinovirus type 64): ≥ 75% | inhibition at 25 µg/mL (rhinovirus type 74): ≥ 75% | inhibition at 25 µg/mL (rhinovirus type 81): ≥ 75% | inhibition at 25 µg/mL (rhinovirus type 68): 50 to 74% | inhibition at 25 µg/mL (rhinovirus type 8): < 50% | inhibition at 25 µg/mL (rhinovirus type 75): < 50% | LD50 (Acute toxicity in rats; ip, intraperitoneal, read-out: acute toxicity, intraperitoneal administration): > 1000 mg/kg | LD50 (Acute toxicity in rats; oral, read-out: acute oral toxicity): > 2000 mg/kg | LD50 [6]: > 2000 mg/kg | effectiveness against Picornaviruses (Picornaviruses): particularly effective against Picornaviruses
